The nature of data set [1]: In-vivo pharmacokinetic analysis (beagle), single oral administration. The following applies: dog, plasma, beagles, Docetaxel PO 50 mg/kg. An excerpt:
The compositions of Example 83 and Comparative Example 1 were single orally administered to beagles to obtain plasma drug concentration information. The results are shown in Tables 12 and 13 below and FIGS. 8 and 9.

A short description of the next data set: in vivo. The following applies: rat, po, 50 mg/kg.

Protocol for in vivo: The graphs of FIGS. 1, 3, 5, and 6 show the docetaxel concentrations in plasma over time in rats, which were measured by collecting blood at 0 hr, 0.25 hr, 0.5 hr, 1 hr, 2 hr, 4 hr, 6 hr, 8 hr, and 12 hr.

With `CC(=O)O[C@@]12CO[C@@H]1C[C@H](O)[C@@]1(C)C(=O)[C@H](O)C3=C(C)[C@@H](OC(=O)[C@H](O)[C@@H](NC(=O)OC(C)(C)C)c4ccccc4)C[C@@](O)([C@@H](OC(=O)c4ccccc4)[C@H]21)C3(C)C` [Comparative Example 1, Docetaxel], in data set [1], the AUC(0-t) (as a rule, exposure summed from dosing to a finite time, without extrapolation to infinity) turned out to be 1.86 ng·h/mL; the highest level (Cmax) was 0.5 ng/mL; the Tmax (as a rule, the time from dosing to the highest level) is 3.5 h. Further, in data set [1] (0.25 h, mean n = 2), the concentration at 0.25 h came out at 0.239 ng/mL. In addition, the concentration at 0.5 h in data set [1] (0.5 h, mean n = 2) turned out to be 0.219 ng/mL. Further, the concentration at 1 h in data set [1] (1 h, mean n = 2) is 0.243 ng/mL. The concentration at 2 h in data set [1] (2 h, mean n = 2) came to 0.14 ng/mL. Further, the concentration at 4 h in data set [1] (4 h, mean n = 2) is 0.621 ng/mL. Also, in data set [1] (6 h, mean n = 2), the concentration at 6 h is 0.675 ng/mL. In addition, the concentration at 8 h in data set [1] (8 h, mean n = 2) was found to be 0.222 ng/mL. In “in vivo”, the AUC(0-t) was determined as 0.85 ng·h/mL, the highest level (Cmax) was 0.12 ng/mL and the Tmax was 12 h.

Values taken from patent US20250235424A1, “PHARMACEUTICAL COMPOSITION CONTAINING DOCETAXEL OR PHARMACEUTICALLY ACCEPTABLE SALT THEREOF AND PREPARATION METHOD THEREFOR” (WEBIOTREE CO., LTD, priority 2022, published 2025).
